Key:
[1] = system: basal cells and pyramidal cells of the airway epithelium; experiment: miRNA expression in sorted basal cells versus pyramidal cells (ciliated + secretory), HTS and Agilent chips; parameters: species or system human; conditions: for Modulation of expression of the miRNAs in pyramidal cells (323(−)) relative to basal cells 323(+): HTS and Agilent chips; for Intensity of the level of expression in log2 in pyramidal cells (323(−)): pyramidal cells (ciliated + secretory)
Procedure: After dissociation of the stroma of nasal polyps, the epithelial cells (about 20.10^6) are incubated in PBS-BSA-EDTA for 30 min and then incubated with labeled antibody CD151-PE and anti-TF (tissue factor)-FITC for 20 min, 4° C. (see Hajj, R. et al., Stem Cells 25, 139-148 (2007)). After washing twice, the cells are taken up in PBS-EDTA and incubated with DAPI for labeling the cells whose integrity has been altered.
Cell sorting was carried out on the FACSAria sorter (BD Biosciences) equipped with 3 lasers, blue, red and violet. Dead cells, aggregates and double cells were excluded. The doubly positive population of basal cells (CD151+/FT+) and the negative population of cylindrical cells (containing ciliated cells and mucus-secreting cells) (CD151−/FT−) were selected and sorted at a rate of 5000 events/s ([…]). The purity and identity of the sorted cells were then verified by cytometry and immunocytochemistry.
Like the native airway epithelium, the model of differentiation in vitro used in these tests consists of basal cells, ciliated cells and mucus-secreting cells. In order to identify the repertoires of the miRNAs specific to each of the cellular types, the inventors used cell sorting by flow cytometry by means of specific markers (Hajj, R. et al. 2007). Using this technique, adult airway progenitor cells (corresponding a priori to basal cells) were isolated, selected and sorted (such cells appear doubly positive for tetraspanin CD151 and for the tissue factor) from the pyramidal cells (i.e. ciliated cells and mucus-secreting cells) which appear negative for these same markers. These were purified from polyps or from nasal conchae obtained from 3 separate donors.
After extracting the total RNAs, the expression profiles of the miRNAs were established by means of Agilent® commercial chips or by high-throughput sequencing (HTS). […] For the first time, the inventors thus attribute a repertoire of expression of the miRNAs specifically to separate cellular types of the airway epithelium during differentiation.

[2] = system: human airway epithelial cells (HAECs); experiment: High-throughput sequencing (HTS) of miRNAs at four stages of differentiation of HAECs; conditions: for Modulation (ratio of the level of intensity of expression in log2 in two stages of differentiation) measured by high-throughput sequencing, D7 − D0 / Modulation (ratio of the level of intensity of expression in log2 in two stages of differentiation) measured by high-throughput sequencing, FC − D7 / Modulation (ratio of the level of intensity of expression in log2 in two stages of differentiation) measured by high-throughput sequencing, WD − D0 / Modulation (ratio of the level of intensity of expression in log2 in two stages of differentiation) measured by high-throughput sequencing, WD − FC / Level of intensity of expression in log2 measured by high-throughput sequencing, D0 / Level of intensity of expression in log2 measured by high-throughput sequencing, D7 / Level of intensity of expression in log2 measured by high-throughput sequencing, FC / Level of intensity of expression in log2 measured by high-throughput sequencing, WD: Table VI; for Level of intensity of expression in log2 At the differentiated stage (WD) measured in HTS: healthy human airway epithelial tissue; for Level of intensity of expression in log2 measured by high-throughput sequencing, D0: stage D0; for Level of intensity of expression in log2 measured by high-throughput sequencing, D7: stage D7; for Level of intensity of expression in log2 measured by high-throughput sequencing, FC: stage FC; for Level of intensity of expression in log2 At the differentiated stage (WD) measured in HTS / Level of intensity of expression in log2 measured by high-throughput sequencing, WD: stage WD
From the text: The total RNAs were extracted from HAECs cultivated at the air-liquid interface at four stages of differentiation: ALI-D0 (0 day), ALI-D7 (7 days), ALI-FC (during appearance of the first cilia at about 14 days) and ALI-WD (wholly differentiated at about 21 days). The cells are lysed in reagent with Trizol® (Invitrogen). The total RNAs containing small RNAs and microRNAs are purified on Qiagen RNEasy columns (Qiagen) according to the supplier's instructions.
The total RNAs containing small RNAs and microRNAs are isolated as before. The procedure is based on the Applied Biosystems Ligase-Enhanced Genome Detection technology (LEGenD™); the SOLiD™ Small RNA Expression kit (Applied Biosystems, France) was used. With this method it is possible to convert the small RNAs of a sample into a library of double-stranded DNA; it was developed by Applied Biosystems SOLiD™ System for a new generation of high-throughput sequencing.
The high-throughput sequencing of the microRNAs was carried out according to the supplier's recommendations. Briefly, the total RNAs containing the small RNAs are hybridized (65° C., 10 min, then at 16° C., 5 min) and ligated (16° C., 2-16 h in a thermocycler) with the Adaptor Mix A for producing a matrix for sequencing the 5′ end of the small RNAs, or with the Adaptor Mix B for sequencing the 3′ end. The samples are then reverse-transcribed (42° C., 30 min) to synthesize the complementary DNA (cDNA). The library of small RNAs is amplified by PCR and after migration on polyacrylamide gel the amplified small RNAs are cut out and extracted from the gel according to their size (length of about 105-150 bases, according to the supplier's instructions), eluted and resuspended in nuclease-free water. The concentration of nucleic acids is then measured and normalized before proceeding with preparation of the samples for sequencing.
For each microRNA sequenced, the number of sequences of the 5p strand and of the 3p strand of the microRNA was normalized to 10^6 sequences and converted to percentage abundance of expression for each of the microRNAs. The data were then normalized according to a linear model and an empirical Bayesian method using software R. For subsequent analyses, only the microRNAs were retained for which the percentage expression (or abundance) is greater than 1% of the total of the microRNAs in at least one culture condition, with a |Log2 Ratio| below 0.5 and an adjusted P-value below 0.05.

[3] = system: human airway epithelial cells (HAECs); experiment: Agilent miRNA chips, miRNA expression at four stages of differentiation of HAECs; conditions: for Modulation (ratio of the level of intensity of expression in log2 in two stages of differentiation) measured with the Agilent chips, D7 − D0 / Modulation (ratio of the level of intensity of expression in log2 in two stages of differentiation) measured with the Agilent chips, FC − D7 / Modulation (ratio of the level of intensity of expression in log2 in two stages of differentiation) measured with the Agilent chips, WD − D0 / Modulation (ratio of the level of intensity of expression in log2 in two stages of differentiation) measured with the Agilent chips, WD − FC / Level of intensity of expression in log2 measured with the Agilent chips, D0 / Level of intensity of expression in log2 measured with the Agilent chips, D7 / Level of intensity of expression in log2 measured with the Agilent chips, FC / Level of intensity of expression in log2 measured with the Agilent chips, WD: Table VI; for Modulation (ratio of the level of intensity of expression in log2 at two stages of differentiation), FC − D7 / Modulation (ratio of the level of intensity of expression in log2 at two stages of differentiation), WD − FC: Agilent miRNA chips, Table V; for Level of intensity of expression in log2 measured with the Agilent chips, D0: stage D0; for Level of intensity of expression in log2 measured with the Agilent chips, D7: stage D7; for Level of intensity of expression in log2 measured with the Agilent chips, FC: stage FC; for Level of intensity of expression in log2 measured with the Agilent chips, WD: stage WD
From the text: In parallel with the high-throughput sequencing of the microRNAs, the repertoire of expression of the microRNAs (microRNAome) is investigated using the technology of Agilent® microRNA chips. For this, RNA samples from the same patients as before were used, labeled and hybridized on Agilent® miRNA chips (Human miRNA Microarray v2, containing 866 human miRNAs and 89 human viral miRNAs, i.e. all the human miRNAs contained and referenced in Sanger miRBase v.12.0, Agilent Technologies, France) using the “miRNA labeling and hybridization” kit, following the supplier's instructions (Agilent Technologies).
The inventors then used the Agilent miRNA chips to investigate the repertoire of expression of the miRNAs of the human airway epithelium and compare the results obtained in high-throughput sequencing with those obtained with Agilent® commercial miRNA chips.

Substance | Modulation of expression of the miRNAs in pyramidal cells (323(−)) relative to basal cells 323(+) [1] | Intensity of the level of expression in log2 in basal cells (323(+)) [1] | Intensity of the level of expression in log2 in pyramidal cells (323(−)) [1] | Modulation (ratio of the level of intensity of expression in log2 in two stages of differentiation) measured by high-throughput sequencing, D7 − D0 [2] | Modulation (ratio of the level of intensity of expression in log2 in two stages of differentiation) measured by high-throughput sequencing, FC − D7 [2] | Modulation (ratio of the level of intensity of expression in log2 in two stages of differentiation) measured by high-throughput sequencing, WD − D0 [2] | Modulation (ratio of the level of intensity of expression in log2 in two stages of differentiation) measured by high-throughput sequencing, WD − FC [2] | Level of intensity of expression in log2 At the differentiated stage (WD) measured in HTS [2] | Level of intensity of expression in log2 measured by high-throughput sequencing, D0 [2] | Level of intensity of expression in log2 measured by high-throughput sequencing, D7 [2] | Level of intensity of expression in log2 measured by high-throughput sequencing, FC [2] | Level of intensity of expression in log2 measured by high-throughput sequencing, WD [2] | Modulation (ratio of the level of intensity of expression in log2 in two stages of differentiation) measured with the Agilent chips, D7 − D0 [3] | Modulation (ratio of the level of intensity of expression in log2 at two stages of differentiation), FC − D7 [3] | Modulation (ratio of the level of intensity of expression in log2 in two stages of differentiation) measured with the Agilent chips, FC − D7 [3] | Modulation (ratio of the level of intensity of expression in log2 in two stages of differentiation) measured with the Agilent chips, WD − D0 [3] | Modulation (ratio of the level of intensity of expression in log2 at two stages of differentiation), WD − FC [3] | Modulation (ratio of the level of intensity of expression in log2 in two stages of differentiation) measured with the Agilent chips, WD − FC [3] | Level of intensity of expression in log2 measured with the Agilent chips, D0 [3] | Level of intensity of expression in log2 measured with the Agilent chips, D7 [3] | also measured
hsa-let-7c: human miRNA, SEQ ID No. 159 (UGAGGUAGUAGGUUGUAUGGUU; expressed or natural sequence; listed as Homo sapiens) | −0.48 | 9.43 log2 | 8.95 log2 | 0.14 log2 | 0.21 log2 | 0.90 log2 | 0.55 log2 | 7.86 log2 | 6.96 log2 | 7.10 log2 | 7.31 log2 | 7.86 log2 | 1.61 log2 | −0.71 log2 | −0.71 log2 | 1.05 log2 | 0.14 log2 | 0.14 log2 | 9.10 log2 | 10.71 log2 | Level of intensity of expression in log2 measured with the Agilent chips, FC [3]: 10.00 log2; Level of intensity of expression in log2 measured with the Agilent chips, WD [3]: 10.15 log2
hsa-let-7e: human miRNA, SEQ ID No. 160 (UGAGGUAGGAGGUUGUAUAGUU; expressed or natural sequence; listed as Homo sapiens) | −1.42 | 8.24 log2 | 6.82 log2 | 0.38 log2 | −0.27 log2 | 0.18 log2 | 0.07 log2 | 7.60 log2 | 7.42 log2 | 7.80 log2 | 7.53 log2 | 7.60 log2 | 1.38 log2 | −0.57 log2 | −0.57 log2 | 0.95 log2 | 0.15 log2 | 0.15 log2 | 8.53 log2 | 9.91 log2 | Level of intensity of expression in log2 measured with the Agilent chips, FC [3]: 9.34 log2; Level of intensity of expression in log2 measured with the Agilent chips, WD [3]: 9.48 log2

From patent US9023821B2, “Use of MicroRNA for treating diseases associated with a dysfunction of the cilia in multiciliated epithelial cells” (Centre National de la Recherche Scientifique, priority 2009, dated 2015)
